Source: patent US20250049929A1, “NOVEL TETRAHYDROQUINOLINES AND PROTEOLYSIS TARGETING CHIMERA (PROTACS) COMPRISING THEM AS DEGRADERS OF SMARCA” (Boehringer Ingelheim International GmbH, priority 2021, published 2025)

Columns and labels:
SMARCA4 = biological target: T1, SMARCA4 (Homo sapiens, UniProt P51532); assay: SMARCA4 degradation analysis by imaging in RKO cells (DC50 A4); assay type: cell-based; conditions: tables 69, 70, 73, 76-78
T1 construct: endogenous in cells; host or cells: RKO cells (CRL-2577, ATCC)
T1 sequence (P51532 whole entry): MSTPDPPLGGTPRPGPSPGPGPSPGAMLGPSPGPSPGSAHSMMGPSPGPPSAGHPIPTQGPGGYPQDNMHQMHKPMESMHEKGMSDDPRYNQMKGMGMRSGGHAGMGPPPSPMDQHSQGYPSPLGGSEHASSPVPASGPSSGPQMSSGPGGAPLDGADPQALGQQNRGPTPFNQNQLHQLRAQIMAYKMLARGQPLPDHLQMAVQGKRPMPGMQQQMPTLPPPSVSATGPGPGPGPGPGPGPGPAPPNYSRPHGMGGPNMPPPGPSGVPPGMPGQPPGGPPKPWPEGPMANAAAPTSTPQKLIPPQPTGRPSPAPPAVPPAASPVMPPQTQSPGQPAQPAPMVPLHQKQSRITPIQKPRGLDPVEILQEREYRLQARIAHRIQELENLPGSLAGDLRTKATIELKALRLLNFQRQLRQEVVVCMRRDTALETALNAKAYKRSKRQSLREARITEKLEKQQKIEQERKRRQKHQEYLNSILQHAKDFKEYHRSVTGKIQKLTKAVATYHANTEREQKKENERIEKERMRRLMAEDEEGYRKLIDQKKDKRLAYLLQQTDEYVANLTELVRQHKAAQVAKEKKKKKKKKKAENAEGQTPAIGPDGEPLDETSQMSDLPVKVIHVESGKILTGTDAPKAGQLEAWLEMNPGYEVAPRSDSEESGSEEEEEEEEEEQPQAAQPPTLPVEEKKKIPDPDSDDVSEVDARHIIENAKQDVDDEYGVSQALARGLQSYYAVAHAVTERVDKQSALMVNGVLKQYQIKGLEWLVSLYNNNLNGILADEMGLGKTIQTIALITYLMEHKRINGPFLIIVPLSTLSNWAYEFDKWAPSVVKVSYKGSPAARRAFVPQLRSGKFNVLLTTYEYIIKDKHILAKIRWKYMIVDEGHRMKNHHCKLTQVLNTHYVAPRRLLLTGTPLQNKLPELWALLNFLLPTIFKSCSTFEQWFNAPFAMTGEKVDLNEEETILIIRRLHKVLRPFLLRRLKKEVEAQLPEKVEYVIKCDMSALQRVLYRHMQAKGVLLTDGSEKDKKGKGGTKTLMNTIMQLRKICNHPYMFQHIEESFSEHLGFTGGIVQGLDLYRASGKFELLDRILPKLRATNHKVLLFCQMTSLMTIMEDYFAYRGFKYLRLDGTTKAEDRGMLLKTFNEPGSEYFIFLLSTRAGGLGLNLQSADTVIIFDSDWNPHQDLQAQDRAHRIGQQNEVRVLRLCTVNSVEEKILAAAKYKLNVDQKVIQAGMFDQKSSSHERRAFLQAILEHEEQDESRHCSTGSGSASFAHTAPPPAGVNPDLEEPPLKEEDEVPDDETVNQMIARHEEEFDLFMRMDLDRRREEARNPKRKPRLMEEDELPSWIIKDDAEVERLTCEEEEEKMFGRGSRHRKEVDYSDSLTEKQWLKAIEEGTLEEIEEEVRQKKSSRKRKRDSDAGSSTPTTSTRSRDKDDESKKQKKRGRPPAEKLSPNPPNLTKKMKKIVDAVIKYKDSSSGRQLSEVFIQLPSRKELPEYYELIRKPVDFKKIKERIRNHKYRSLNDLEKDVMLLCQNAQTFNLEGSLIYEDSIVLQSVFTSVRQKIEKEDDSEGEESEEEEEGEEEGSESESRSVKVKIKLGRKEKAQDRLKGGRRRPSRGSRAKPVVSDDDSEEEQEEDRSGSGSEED
Description: (§1) Determination of SMARCA2 and SMARCA4 Degradation (DC50 A2 and A4 [nM])
(§2) Protein Degradation Assays for SMARCA2 and SMARCA4
(§3) For degradation analysis by imaging, 1250 RKO cells (CRL-2577, ATCC) per well were seeded into 60 μL DMEM (Sigma Aldrich) supplemented with 10% FBS (Hyclone) in 384-well flat bottom plates (CellCarrier Ultra, Perkin Elmer) and incubated at 37° C. and 5% CO2 in a humidified atmosphere overnight. Compounds were added the next day using an Access Labcyte Workstation with a Labcyte Echo 550 or 555 acoustic dispenser and incubated with the cells for 4 or 24 h. Cells were fixed by adding 25 μL fixation buffer (7.4% formaldehyde (Sigma Aldrich F8775), 0.2% Triton TX100 (Sigma Aldrich F93443) in PBS) for 15 minutes at room temperature. After aspirating the fixing solution, the cells were washed once with 25 μL PBS and 25 μL of Blocking Buffer (10% Goat Serum in PBS) were added to each well and incubated for 30 minutes. Cells were washed with PBS and incubated with 20 μL mouse anti-Smarca4 (BRG1) antibody (Cell Signaling #52251) or rabbit anti-Smarca2 (BRM) antibody (Sigma Aldrich HPA029981) in blocking solution (PBS with 10% FCS) for ca. 2-4 h at RT. For detection of the nuclei, 25 μL of 5 μg/mL Hoechst 33342 (stock 10 mg/mL in H2O; Invitrogen H1399) were added together with Alexa Fluor 647 goat anti-mouse IgG (Invitrogen A-21235) or Alexa Fluor 488 goat anti-rabbit IgG (Invitrogen A-11034) in blocking solution and incubated for 60 min at RT. The cell layer was washed with 25 μL PBS, the wells were filled with 25 μL PBS and the plates sealed with an adhesive sheet. The mean intensity at 488 or 647 nm in the nucleus was measured using an Opera Phenix Plus High-Content Screening System (Perkin Elmer), values were normalized to the background and DMSO control and DC50 values were calculated and analyzed using a four-parametric logistic model.

SMARCA2 = biological target: T2, SMARCA2 (Homo sapiens, UniProt P51531); assay: SMARCA2 degradation analysis by imaging in RKO cells (DC50 A2); assay type: cell-based; conditions: tables 69, 70, 73, 76-78
T2 construct: endogenous in cells; host or cells: RKO cells (CRL-2577, ATCC)
T2 sequence (P51531 whole entry): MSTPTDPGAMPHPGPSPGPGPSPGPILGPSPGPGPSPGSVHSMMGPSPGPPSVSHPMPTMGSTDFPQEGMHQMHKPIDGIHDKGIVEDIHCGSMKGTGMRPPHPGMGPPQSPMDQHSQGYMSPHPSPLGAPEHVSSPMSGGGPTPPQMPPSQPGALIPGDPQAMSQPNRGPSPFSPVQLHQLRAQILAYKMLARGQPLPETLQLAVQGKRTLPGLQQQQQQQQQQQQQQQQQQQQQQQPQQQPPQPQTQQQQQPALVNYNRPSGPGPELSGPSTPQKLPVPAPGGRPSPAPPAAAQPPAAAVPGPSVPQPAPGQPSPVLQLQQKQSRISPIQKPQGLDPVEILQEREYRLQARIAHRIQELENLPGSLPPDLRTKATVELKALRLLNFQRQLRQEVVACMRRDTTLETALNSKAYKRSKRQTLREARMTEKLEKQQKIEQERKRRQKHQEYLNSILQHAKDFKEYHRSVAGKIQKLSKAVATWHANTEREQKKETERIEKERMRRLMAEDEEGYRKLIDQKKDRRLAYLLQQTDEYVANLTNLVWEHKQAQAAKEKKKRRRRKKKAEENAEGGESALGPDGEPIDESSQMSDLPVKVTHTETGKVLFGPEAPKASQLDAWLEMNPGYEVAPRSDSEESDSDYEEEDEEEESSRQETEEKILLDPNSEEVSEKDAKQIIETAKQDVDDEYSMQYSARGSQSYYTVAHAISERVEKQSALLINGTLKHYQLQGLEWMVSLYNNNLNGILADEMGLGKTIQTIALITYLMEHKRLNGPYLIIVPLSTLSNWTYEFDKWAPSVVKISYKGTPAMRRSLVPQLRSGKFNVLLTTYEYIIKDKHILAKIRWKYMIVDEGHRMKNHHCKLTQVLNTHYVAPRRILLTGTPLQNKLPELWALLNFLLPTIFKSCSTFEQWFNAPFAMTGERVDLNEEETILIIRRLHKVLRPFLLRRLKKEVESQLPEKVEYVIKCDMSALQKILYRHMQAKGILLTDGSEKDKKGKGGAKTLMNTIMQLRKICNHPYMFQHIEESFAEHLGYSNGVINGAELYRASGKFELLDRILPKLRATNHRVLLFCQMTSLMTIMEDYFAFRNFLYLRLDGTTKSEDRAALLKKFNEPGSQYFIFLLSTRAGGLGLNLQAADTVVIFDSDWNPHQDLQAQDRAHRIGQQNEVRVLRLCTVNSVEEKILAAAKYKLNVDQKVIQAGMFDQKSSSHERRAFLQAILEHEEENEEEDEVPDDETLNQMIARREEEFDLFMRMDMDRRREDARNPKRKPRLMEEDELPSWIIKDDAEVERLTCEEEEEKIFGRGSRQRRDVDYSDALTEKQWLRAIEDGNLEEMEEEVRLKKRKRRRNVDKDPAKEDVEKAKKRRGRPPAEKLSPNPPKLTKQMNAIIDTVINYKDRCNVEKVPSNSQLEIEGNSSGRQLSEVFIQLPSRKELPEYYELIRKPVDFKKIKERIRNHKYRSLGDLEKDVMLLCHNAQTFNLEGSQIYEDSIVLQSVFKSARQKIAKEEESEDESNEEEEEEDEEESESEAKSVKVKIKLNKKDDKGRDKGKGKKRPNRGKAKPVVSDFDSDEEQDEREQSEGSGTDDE
Description: as §1, §2, §3

Compound | DC50 (SMARCA4) [nM] | DC50 (SMARCA2) [nM]
Cc1ncsc1-c1ccc([C@H](CC[C@H](C)CCN2CCC(c3ccc4c(c3)n(C3CCCC3)c3nc(=O)c5c(Br)cccc5n43)CC2)NC(=O)[C@@H]2C[C@@H](O)CN2C(=O)[C@@H](NC(=O)C2(F)CC2)C(C)(C)C)cc1 [Compound 42a] | 25 | 0.9
Cc1ncsc1-c1ccc([C@H](CCCN2CCC(c3cc4c(cc3OCCCN(C)C)n3c5cccc(Br)c5c(=O)nc3n4C3CCCC3)CC2)NC(=O)[C@@H]2C[C@@H](O)CN2C(=O)[C@@H](NC(=O)C2(F)CC2)C(C)(C)C)cc1 [Compound 42aa] | 20 | 10
Cc1ncsc1-c1ccc([C@H](COCCN2CCC(c3cc4c(cc3OCCN3CCN(C)CC3)n3c5cccc(Br)c5c(=O)nc3n4C3CCCC3)CC2)NC(=O)[C@@H]2C[C@@H](O)CN2C(=O)[C@@H](NC(=O)C2(F)CC2)C(C)(C)C)cc1 [Compound 42ab] | > 200 | 21
Cc1ncsc1-c1ccc([C@H](CO[C@@H](C)CN2CCC(c3ccc4c(c3)n(C3CCCC3)c3nc(=O)c5c(Br)cccc5n43)CC2)NC(=O)[C@@H]2C[C@@H](O)CN2C(=O)[C@@H](NC(=O)C2(F)CC2)C(C)(C)C)cc1 [Compound 42ac] | > 200 | 20
Cc1ncsc1-c1ccc([C@H](CCCN2CCC(c3ccc4c(c3)n(C3COC3)c3nc(=O)c5c(Br)cccc5n43)CC2)NC(=O)[C@@H]2C[C@@H](O)CN2C(=O)[C@@H](NC(=O)C2(F)CC2)C(C)(C)C)cc1 [Compound 42ad] | > 200 | 25
CC(C)(C)[C@H](NC(=O)C1(F)CC1)C(=O)N1C[C@H](O)C[C@H]1C(=O)N[C@@H](CCCN1CCC(c2ccc3c(c2)n(C2CCCC2)c2nc(=O)c4c(Br)cccc4n32)CC1)c1ccc(-c2cncs2)cc1 [Compound 42ae] | 5 | 1
Cc1ncsc1-c1ccc([C@H](COCC(O)CN2CCC(c3ccc4c(c3)n(C3CCCC3)c3nc(=O)c5c(Br)cccc5n43)CC2)NC(=O)[C@@H]2C[C@@H](O)CN2C(=O)[C@@H](NC(=O)C2(F)CC2)C(C)(C)C)cc1 (stereo partly drawn) [Compound 42af] | 25 | 6
CCn1c2cc(C3CCN(CCCCCOC[C@H](NC(=O)[C@@H]4C[C@@H](O)CN4C(=O)[C@@H](NC(=O)C4(N(C)C)CC4)C(C)(C)C)c4ccc(-c5scnc5C)cc4)CC3)c(OCCOCCOC)cc2n2c3cccc(Br)c3c(=O)nc12 [Compound 42ag] | > 200 | 9
Cc1ncsc1-c1ccc([C@H](CCCN2CCC(c3ccc4c(c3)n(C3CCCC3)c3nc(=O)c5c(Br)cccc5n43)CC2)NC(=O)[C@@H]2C[C@@H](O)CN2C(=O)[C@@H](NC(=O)C2(N(C)C)CC2)C(C)(C)C)cc1 [Compound 42ah] | 17 | 2
Cc1ncsc1-c1ccc([C@H](CCCCN2CCC(c3ccc4c(c3)n(C3CCCC3)c3nc(=O)c5c(Br)cccc5n43)CC2)NC(=O)[C@@H]2C[C@@H](O)CN2C(=O)[C@@H](NC(=O)C2(F)CC2)C(C)(C)C)cc1 [Compound 42ai] | 9 | 2
Cc1ncsc1-c1ccc([C@H](COCCN2CCC(c3ccc4c(c3)n(C3CCCC3)c3nc(=O)c5c(Br)cccc5n43)CC2)NC(=O)[C@@H]2C[C@@H](O)CN2C(=O)[C@@H](NC(=O)C2(N(C)C)CC2)C(C)(C)C)cc1 [Compound 42aj] |  | 4
Cc1ncsc1-c1ccc([C@H](COCCCN2CCC(c3ccc4c(c3)n(C3CCCC3)c3nc(=O)c5c(Br)cccc5n43)CC2)NC(=O)[C@@H]2C[C@@H](O)CN2C(=O)[C@@H](NC(=O)C2(F)CC2)C(C)(C)C)cc1 [Compound 42ak] | 11 | 2
Cc1ncsc1-c1ccc([C@H](CCCN2CCC(c3cc4c(cc3OCCOCCO)n3c5cccc(Br)c5c(=O)nc3n4C3CCCC3)CC2)NC(=O)[C@@H]2C[C@@H](O)CN2C(=O)[C@@H](NC(=O)C2(F)CC2)C(C)(C)C)cc1 [Compound 42am] | 25 | 0.9
Cc1ncsc1-c1ccc([C@H](CO[C@H](C)CN2CCC(c3cc4c(cc3OC[C@@H]3CCCO3)n3c5cccc(Br)c5c(=O)nc3n4C3CCCC3)CC2)NC(=O)[C@@H]2C[C@@H](O)CN2C(=O)[C@@H](NC(=O)C2(F)CC2)C23CC4CC(CC(C4)C2)C3)cc1 [Compound 42an] | 7 | 0.6
Cc1ncsc1-c1ccc([C@H](CCCCCN2CCN(c3ccc4c(c3)n(C3CCCC3)c3nc(=O)c5c(Br)cccc5n43)CC2(C)C)NC(=O)[C@@H]2C[C@@H](O)CN2C(=O)[C@@H](NC(=O)C2(F)CC2)C(C)(C)C)cc1 [Compound 42ao] | 17 | 1
Cc1ncsc1-c1ccc([C@H](CCCCCN2CCN(c3ccc4c(c3)n(C3CCCC3)c3nc(=O)c5c(Br)cccc5n43)[C@H](C)C2)NC(=O)[C@@H]2C[C@@H](O)CN2C(=O)[C@@H](NC(=O)C2(F)CC2)C(C)(C)C)cc1 [Compound 42aq] | 9 | 1
Cc1ncsc1-c1ccc([C@H](CCCCCN2CCN(c3ccc4c(c3)n(C3CCCC3)c3nc(=O)c5c(Br)cccc5n43)[C@@H](C)C2)NC(=O)[C@@H]2C[C@@H](O)CN2C(=O)[C@@H](NC(=O)C2(F)CC2)C(C)(C)C)cc1 [Compound 42ar] | 2 | 0.5
Cc1ncsc1-c1ccc([C@@H](CC[C@@H](C)CCN2CCC(c3ccc4c(c3)n(C3CCCC3)c3nc(=O)c5c(Br)cccc5n43)CC2)NC(=O)[C@@H]2C[C@@H](O)CN2C(=O)[C@@H](NC(=O)C2(F)CC2)C(C)(C)C)cc1 [Compound 42as] | > 833 | 82
Cc1ncsc1-c1ccc([C@@H](CC[C@H](C)CCN2CCC(c3ccc4c(c3)n(C3CCCC3)c3nc(=O)c5c(Br)cccc5n43)CC2)NC(=O)[C@@H]2C[C@@H](O)CN2C(=O)[C@@H](NC(=O)C2(F)CC2)C(C)(C)C)cc1 [Compound 42at] | > 833 | 57
Cc1ncsc1-c1ccc([C@H](CCCCCN2C[C@@H]3C[C@H]2CN3c2ccc3c(c2)n(C2CCCC2)c2nc(=O)c4c(Br)cccc4n32)NC(=O)[C@@H]2C[C@@H](O)CN2C(=O)[C@@H](NC(=O)C2(F)CC2)C(C)(C)C)cc1 [Compound 42au] | > 833 | 7
Cc1ncsc1-c1ccc([C@H](COCCN2CCC(c3cc4c(cc3F)n3c5cccc(Br)c5c(=O)nc3n4C3CCCC3)CC2)NC(=O)[C@@H]2C[C@@H](O)CN2C(=O)[C@@H](NC(=O)C2(F)CC2)C(C)(C)C)cc1 [Compound 42av] | 162 | 13
Cc1ncsc1-c1ccc([C@H](CCCCCN2CCC(c3cc4c(cn3)n3c5cccc(Br)c5c(=O)nc3n4C3CCCC3)CC2)NC(=O)[C@@H]2C[C@@H](O)CN2C(=O)[C@@H](NC(=O)C2(F)CC2)C(C)(C)C)cc1 [Compound 42aw] | > 833 | 6
Cc1ncsc1-c1ccc([C@H](CCCCN(C)C2CCC(c3ccc4c(c3)n(C3CCCC3)c3nc(=O)c5c(Br)cccc5n43)CC2)NC(=O)[C@@H]2C[C@@H](O)CN2C(=O)[C@@H](NC(=O)C2(F)CC2)C(C)(C)C)cc1 (stereo partly drawn) [Compound 42ax] | 29 | 7
COc1cc2c(cc1C1CCN(CCOC[C@H](NC(=O)[C@@H]3C[C@@H](O)CN3C(=O)[C@@H](NC(=O)C3(F)CC3)C(C)(C)C)c3ccc(-c4scnc4C)cc3)CC1)n(C1CCCC1)c1nc(=O)c3c(Br)cccc3n21 [Compound 42ay] | 109 | 15
Cc1ncsc1-c1ccc([C@H](COCCN2CCC(c3cc4c(cc3OC3CCOC3)n3c5cccc(Br)c5c(=O)nc3n4C3CCCC3)CC2)NC(=O)[C@@H]2C[C@@H](O)CN2C(=O)[C@@H](NC(=O)C2(F)CC2)C(C)(C)C)cc1 (stereo partly drawn) [Compound 42az] | 800 | 36
Cc1ncsc1-c1ccc([C@H](CC[C@H](C)CCN2CCC(c3ccc4c(c3)n([C@H]3CCOC3)c3nc(=O)c5c(Br)cccc5n43)CC2)NC(=O)[C@@H]2C[C@@H](O)CN2C(=O)[C@@H](NC(=O)C2(F)CC2)C(C)(C)C)cc1 [Compound 42b] | > 833 | 2
CCn1c2cc(C3CCN(CCCCC[C@H](NC(=O)[C@@H]4C[C@@H](O)CN4C(=O)[C@@H](NC(=O)C4(F)CC4)C(C)(C)C)c4ccc(-c5scnc5C)cc4)CC3)ccc2n2c3cccc(Br)c3c(=O)nc12 [Compound 42ba] | 22 | 4
Cc1ncsc1-c1ccc([C@H](COCCN2CCC(c3ccc4c(c3)n(C3CCCC3)c3nc(=O)c5c(Br)cccc5n43)CC2)NC(=O)[C@@H]2C[C@@H](O)CN2C(=O)[C@@H](NC(=O)C2(C)CC2)C(C)(C)C)cc1 [Compound 42bb] | 142 | 17
Cc1ncsc1-c1ccc([C@H](COCCN2CCC(c3ccc4c(c3)n(C3CCCC3)c3nc(=O)c5c(Br)cccc5n43)CC2)NC(=O)[C@@H]2C[C@@H](O)CN2C(=O)[C@@H](NC(=O)C2(C(F)(F)F)CC2)C(C)(C)C)cc1 [Compound 42bc] | 133 | 19
